Laboratory results: US11965180B2, “Cancer stem cell population and method for production thereof” (CHUGAI SEIYAKU KABUSHIKI KAISHA, priority 2010, dated 2024)

How the values were obtained:
Format in all cases: cell-based, human
[1] = test system: Lgr5-negative colon cancer stem cells; assay: Cell growth, Cell Counting Kit-8, floating cancer stem cells; conditions: 3-day culture; for growth and survival of Lgr5-negative colon cancer stem cells: 10 μg/ml
Method: (§1) To determine whether or not the Wnt signaling promotes the growth of colon cancer stem cells, the inventors examined the effects of FH535 (β-catenin/TCF inhibitor) and cardamonin (Wnt/β-catenin inhibitor that induces β-catenin degradation) on the growth of colon cancer stem cells. Cell growth was evaluated as described below. Floating and adherent cancer stem cells were seeded at about 100 and 1×10^4 cells per well, respectively, in 96-well plates. On days 0 and 3, living cells were counted using the Cell Counting Kit-8 assay (Doujindo) according to the manufacturer's protocol. The average absorbance on day 0 was expressed as 100%. For chemical sensitivity analysis, floating and adherent cancer stem cells were seeded at about 100 and 1×10^4 cells per well in 96-well plates, respectively. […] After 3-day culture in the presence of a drug, Cell Counting Kit-8 was added to the cells. The average absorbance of cells exposed to DMSO or the medium alone was expressed as 100%. All the experiments were conducted in triplicate.

[2] = test system: Lgr5-positive colon cancer stem cells; assay: Cell growth, Cell Counting Kit-8, adherent cancer stem cells; conditions: 3-day culture; for growth of Lgr5-positive colon cancer stem cells: PLR123 and PLR59 cells
Method: as §1

[3] = test system: Lgr5-positive colon cancer stem cells; assay: Lgr5 expression in adherent cancer stem cells after chemotherapeutic agent treatment (flow cytometry); conditions: after 3 days of exposing Lgr5-positive colon cancer stem cells to 10 μg/ml
Method: Gray indicates fluorescence intensity or ALDH activity after staining cells with the antibodies described. White indicates fluorescence intensity or ALDH activity of an ALDH inhibitor after staining cells with a control isotype antibody.
CSC was incubated with a labeled antibody and analyzed using EPICS ALTRA (Beckman Coulter) and FACSCalibur (Becton Dickinson). The antibodies used were PE-labeled mouse anti-human CD133 (Miltenyi Biotec), PE-labeled mouse anti-human CD44 (BD Pharmingen), FITC-labeled mouse anti-human CD326 (EpCAM) (Miltenyi Biotec), PE-labeled mouse anti-human CD166 (R & D Systems), PE-labeled mouse anti-human CD24 (BD Pharmingen), PE-labeled mouse anti-human CD26 (BD Pharmingen), and PE-labeled mouse anti-human CD29 (BD Pharmingen) antibodies.
Subsequently, the CSC was incubated with a mouse anti-human Lgr5 antibody (2T15E-2) and then a PR-labeled rat anti-mouse IgG (Invitrogen) antibody for Lgr5 staining. Aldehyde dehydrogenase activity was measured using the AldeFluor Kit (Stemcell Technologies). Mouse cells and human CSC were distinguished by staining with an anti-mouse MHC class I antibody (Abcam) and a PE- or APC-labeled goat anti-human IgG2a (BioLegend) antibody. Dead cells were removed with the 7-AAD Viability Dye (Beckman Coulter).

What does the source list for `O=c1[nH]cc(F)c(=O)[nH]1` [5-FU]?
growth and survival of Lgr5-negative colon cancer stem cells ([1]; PLR123 and PLR59 cells): had no effect on the growth and survival; growth of Lgr5-positive colon cancer stem cells ([2]; 10 μg/ml): significantly inhibited the growth; Lgr5 status of drug-resistant cells [3]: negative for Lgr5

With `Cc1cc([N+](=O)[O-])ccc1NS(=O)(=O)c1cc(Cl)ccc1Cl` [FH535] as the molecule, how does the “growth of Lgr5-negative colon cancer stem cells” value ([1]; 50 μM, PLR123 and PLR59 cells) read?
Its value is “had no effect on the growth”.

What about the “growth of Lgr5-positive colon cancer stem cells” value ([2]; 50 μM) of the same molecule?
Its value is “significantly reduced the growth”.

`COc1cc(O)cc(O)c1C(=O)/C=C/c1ccccc1` [cardamonin] was tested. Which “number of living cells” value ([1]; 50 μM, relative to DMSO alone, Lgr5-negative colon cancer stem cells) did it give?
The value was “about 50%”.

And the “number of living cells” value ([2]; 50 μM, relative to DMSO alone, Lgr5-positive colon cancer stem cells)?
Its value is 70%.

For `CCc1c2c(nc3ccc(OC(=O)N4CCC(N5CCCCC5)CC4)cc13)-c1cc3c(c(=O)n1C2)COC(=O)[C@]3(O)CC` [irinotecan], which “growth and survival of Lgr5-negative colon cancer stem cells” value ([1]; PLR123 and PLR59 cells) is on record?
The value was “had no effect on the growth and survival”.

And the “growth of Lgr5-positive colon cancer stem cells” value ([2]; 10 μg/ml)?
Its value is “significantly inhibited the growth”.
